Measured values from US10851082B2, “Substituted aromatic n-heterocyclic compounds as inhibitors of mitogen-activated protein kinase interacting kinase 1 (MNK1) and 2 (MNK2)” (Northwestern University, priority 2015, dated 2020).
Like-named read-outs stand apart in the source and are kept apart here.

Assays:
Mnk1 = Mnk1 (Homo sapiens (Human), UniProt Q9BUB5); experiment: Mnk1 kinase inhibition, ADP-Glo ADP monitoring assay; format: biochemical
Mnk2 = Mnk2 (Homo sapiens (Human), UniProt Q9HBH9); experiment: Mnk2 kinase inhibition, ADP-Glo ADP monitoring assay; format: biochemical
Mnk2, sequence (Q9HBH9 whole entry): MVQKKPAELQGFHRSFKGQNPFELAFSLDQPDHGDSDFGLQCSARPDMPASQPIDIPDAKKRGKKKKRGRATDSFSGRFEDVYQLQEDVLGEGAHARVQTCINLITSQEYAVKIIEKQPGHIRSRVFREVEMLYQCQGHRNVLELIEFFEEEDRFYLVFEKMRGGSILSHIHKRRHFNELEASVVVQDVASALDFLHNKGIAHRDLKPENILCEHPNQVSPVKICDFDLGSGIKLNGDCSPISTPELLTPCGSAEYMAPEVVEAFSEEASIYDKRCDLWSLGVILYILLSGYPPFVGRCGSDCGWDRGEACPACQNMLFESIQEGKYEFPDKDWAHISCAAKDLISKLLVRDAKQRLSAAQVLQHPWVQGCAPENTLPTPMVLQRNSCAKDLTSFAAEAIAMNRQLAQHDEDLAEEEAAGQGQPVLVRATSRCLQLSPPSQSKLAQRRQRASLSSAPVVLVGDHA

[1] = read-out: Mnk1 inhibition IC50 (+,++,+++)
[2] = ADP-Glo kinase assay, read-out: Mnk2 inhibition IC50 (+,++,+++)
[3] = unit inferred, read-out: Mnk1 IC50
[4] = ADP-Glo kinase assay, unit inferred, read-out: Mnk2 IC50
[5] = ADP-Glo kinase assay, read-out: Mnk2 IC50

Mnk1, sequence (Q9BUB5 whole entry): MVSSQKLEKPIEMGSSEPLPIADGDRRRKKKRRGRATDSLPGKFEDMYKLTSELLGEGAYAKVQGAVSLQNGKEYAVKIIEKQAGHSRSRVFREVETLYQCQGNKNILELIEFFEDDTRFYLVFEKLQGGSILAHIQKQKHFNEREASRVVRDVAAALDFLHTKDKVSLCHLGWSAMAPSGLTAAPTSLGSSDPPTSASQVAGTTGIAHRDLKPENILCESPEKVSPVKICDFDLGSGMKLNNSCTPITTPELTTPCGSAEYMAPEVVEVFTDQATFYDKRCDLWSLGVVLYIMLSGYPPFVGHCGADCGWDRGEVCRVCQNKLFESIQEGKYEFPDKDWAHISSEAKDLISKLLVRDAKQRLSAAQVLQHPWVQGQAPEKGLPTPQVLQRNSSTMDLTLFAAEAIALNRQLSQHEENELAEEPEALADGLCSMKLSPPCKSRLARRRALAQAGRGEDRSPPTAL

SMILES | IC50 (Mnk1; [1]) [nM] | IC50 (Mnk2; [2]) [nM] | other results
Fc1cnc(NC23CC(C2)C3)nc1-n1cnc2ccccc21 [NUCC-0201887] | < 1000 | < 1000 | –
NC1CC(Oc2ncc(Cl)c(-n3cnc4ccccc43)n2)C1 (stereo not drawn) [NUCC-0201004] | < 1000 | < 1000 | –
Clc1cnc(NCCc2ccncc2)nc1-n1ccc2c(Cl)ncnc21 [NUCC-0200911] | > 10000 | > 10000 | –
CC(C)(COc1nc(-n2cnc3ccccc32)ncc1C#N)c1ccnc(F)c1 [NUCC-0201908] | 1000 to 10000 | – | IC50 (Mnk2): 1000 to 10000 nM
Clc1cnc(NC2CCNC2)nc1-n1cnc2ccccc21 (stereo not drawn) [NUCC-0201007] | < 1000 | < 1000 | –
O=C(NC1CC1)c1cc(-n2cnc3ccccc32)nc(NCCc2ccncc2)n1 [NUCC-0196234] | – | – | IC50 (Mnk1; [3]): > 10000 nM; IC50 (Mnk2; [4]): 5400 nM
N#Cc1cnc(OC2CCc3cccnc32)nc1-n1cnc2ccccc21 (stereo not drawn) [NUCC-0200905] | > 10000 | – | IC50 (Mnk2): 1000 to 10000 nM
NC1CC(Oc2nc(C3CC3)c(Cl)c(-n3cnc4ccccc43)n2)C1 (stereo not drawn) [NUCC-0201915, 3-((4-(1H-benzo[d]imidazol-1-yl)-5-chloro-6-cyclopropylpyrimidin-2-yl)oxy)cyclobutanamine] | 1000 to 10000 | – | IC50 (Mnk2): 1000 to 10000 nM
Clc1cnc(OC2CCOCC2)nc1-n1cnc2ccccc21 [NUCC-0200804] | < 1000 | < 1000 | –
S=c1oc2ccccc2n1-c1ccnc(NCCc2ccncc2)n1 [NUCC-0176354] | – | – | IC50 (Mnk1; read-out: Mnk1 IC50): 10000 nM; IC50 (Mnk2; [5]): 4900 nM
Clc1cnc(NCCc2ccncc2)nc1-n1nnc2ccccc21 [NUCC-0200801] | > 10000 | – | IC50 (Mnk2): 1000 to 10000 nM
N#Cc1cnc(-n2cnc3ccccc32)nc1OC1CCc2cccnc21 (stereo not drawn) [NUCC-0200906] | 1000 to 10000 | < 1000 | –
OC1CC(Nc2ncc(Cl)c(-n3cnc4ccccc43)n2)C1 (stereo not drawn) [NUCC-0201003] | 1000 to 10000 | – | IC50 (Mnk2): 1000 to 10000 nM
N#Cc1cnc(OCCN2CCOCC2)nc1-n1cnc2ccccc21 [NUCC-0200791] | 1000 to 10000 | < 1000 | –
Clc1cnc(OC2CCC2)nc1-n1cnc2ccccc21 [NUCC-0201048] | < 1000 | < 1000 | –
c1ccc(Cn2cc(-c3ccnc(NCCc4ccncc4)n3)cn2)cc1 [NUCC-0060972] | – | – | IC50 (Mnk1; read-out: Mnk1 IC50): 19000 nM; IC50 (Mnk2; [5]): 2500 nM
O=[N+]([O-])c1ccc(NCCNc2nccc(-n3cnc4ccccc43)n2)nc1 [NUCC-0176365] | – | – | IC50 (Mnk1; read-out: Mnk1 IC50): 7400 nM; IC50 (Mnk2; [5]): 2100 nM
O[C@@H](c1ccccc1)[C@H](Nc1nccc(-n2cnc3ccccc32)n1)c1ccccc1 [NUCC-0196256] | – | – | IC50 (Mnk1; [3]): 7300 nM; IC50 (Mnk2; [4]): 3800 nM

SMILES | IC50 (Mnk1; [1]) [nM] | IC50 (Mnk2; [2]) [nM] | other results
Cc1ccc2c(c1)ncn2-c1ncc(Cl)c(NCCc2ccncc2)n1 [NUCC-0200909] | < 1000 | < 1000 | –
O=[N+](O)c1ccc2c(c1)ncn2-c1nc(NCCc2ccncc2)ncc1Cl [NUCC-0200798] | > 10000 | – | IC50 (Mnk2): 1000 to 10000 nM
c1ccc2c(c1)cnn2-c1ccnc(NCCc2ccncc2)n1 [NUCC-0176346] | – | – | IC50 (Mnk1; read-out: Mnk1 IC50): 5400 nM; IC50 (Mnk2; [5]): 4700 nM
O[C@@H]1CC[C@@H](Nc2nccc(-n3cnc4ccccc43)n2)C1 [NUCC-0176165] | – | – | IC50 (Mnk1; read-out: Mnk1 IC50): 340 nM; IC50 (Mnk2; [5]): 61 nM
COC1CCC(Nc2nccc(-n3cnc4ccccc43)n2)CC1 (stereo not drawn) [NUCC-0176153] | – | – | IC50 (Mnk1; read-out: Mnk1 IC50): 480 nM; IC50 (Mnk2; [5]): 81 nM
COC(=O)c1cc(-n2cnc3ccccc32)nc(NCCc2ccncc2)n1 [NUCC-0196230] | – | – | IC50 (Mnk1; [3]): > 10000 nM; IC50 (Mnk2; [4]): > 10000 nM
CC1=C(Oc2ncc(Cl)c(-n3cnc4ccccc43)n2)C(=O)CO1 [NUCC-0201019] | 1000 to 10000 | – | IC50 (Mnk2): 1000 to 10000 nM
CC(C)(COc1ncc(Cl)c(-n2cnc3ccccc32)n1)c1ccnc(F)c1 [NUCC-0201914] | < 1000 | < 1000 | –
N#Cc1cnc(NC2CNC(=O)C2)nc1-n1cnc2ccccc21 (stereo not drawn) [NUCC-0201905] | < 1000 | < 1000 | –
Clc1cnc(NC2CCN(c3nccn4ccnc34)C2)nc1-n1cnc2ccccc21 (stereo not drawn) [NUCC-0201015] | 1000 to 10000 | – | IC50 (Mnk2): 1000 to 10000 nM
N#Cc1cnc(OCCc2ccnc(F)c2)nc1-n1cnc2ccccc21 [NUCC-0201918] | < 1000 | < 1000 | –
Fc1ccc2c(ncn2-c2nc(OCCc3ccccn3)ncc2Cl)c1F [NUCC-0201662] | < 1000 | < 1000 | –
c1ccc2c(c1)ncn2-c1ccnc(NC2CCCOC2)n1 (stereo not drawn) [NUCC-0176151] | – | – | IC50 (Mnk1; read-out: Mnk1 IC50): 390 nM; IC50 (Mnk2; [5]): 44 nM
O[C@H](c1ccccc1)[C@@H](Nc1nccc(-n2cnc3ccccc32)n1)c1ccccc1 [NUCC-0196257] | – | – | IC50 (Mnk1; [3]): 1300 nM; IC50 (Mnk2; [4]): 310 nM
Brc1cnc(OCCc2ccncc2)nc1-n1cnc2ccccc21 [NUCC-0200789] | < 1000 | < 1000 | –
COc1ccc(Oc2ncc(Cl)c(-n3cnc4ccccc43)n2)cc1 [NUCC-0200809] | – | – | Mnk1 inhibition IC50 (+,++,+++) (Mnk1): no activity; Mnk2 inhibition IC50 (+,++,+++) (Mnk2; ADP-Glo kinase assay): no activity
O=C1CC(Nc2ncc(C(F)(F)F)c(-n3cnc4ccccc43)n2)CN1 (stereo not drawn) [NUCC-0201890] | < 1000 | < 1000 | –
O=C1CCN(c2ncc(Cl)c(-n3cnc4ccccc43)n2)C1 [NUCC-0201051] | 1000 to 10000 | – | IC50 (Mnk2): 1000 to 10000 nM
